Data from BigSolDB 2.1.

C[N+](C)(C)C[C@H](O)CC(=O)[O-]
solubility (mole fraction)
Settings	in acetone	in ethanol	in isopropanol	in methanol
278.15 K	7.1e-05	0.0392	0.00146	0.0962
283.15 K	8.1e-05	0.0408	0.00181	0.0982
288.15 K	9.1e-05	0.0431	0.00223	0.104
293.15 K	0.000106	0.0452	0.00271	0.111
298.15 K	0.000117	0.0483	0.0034	0.119
303.15 K	0.000131	0.0517	0.00417	0.127
308.15 K	0.000143	0.0546	0.00527	0.136
313.15 K	0.000157	0.0576	0.0063	0.144
318.15 K	0.000175	0.0607	0.00778	0.154
323.15 K	0.000195	0.0648	0.00983	0.165
328.15 K	0.00022	0.0698	0.0118	0.178
333.15 K	–	0.0747	0.0144	0.189
338.15 K	–	0.0801	–	–
343.15 K	–	0.0855	–	–
348.15 K	–	0.0919	–	–
